Tests used:
[1] = In vitro cytotoxicity assay (MTT cell viability) in HepG2 cells; type: cell-based, human; conditions: human
Summary of the method: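 CC50 was derived by 4-parameter fit of viability relative to vehicle controls, measured as MTT formazan absorbance at 492 nm after 3–4 h of reagent and DMSO solubilization. Before that, HepG2 cells seeded overnight at 20,000/well were incubated 7 days at 37°C with compound from 30 μM down to 1.0 nM in half-log steps.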

HBV = assay: In vitro antiviral assay: anti-HBV replication in HepAD38 cells (extracellular HBV DNA by QPCR); type: cell-based, hepatitis B virus (genotype D, serotype ayw); conditions: Hepatitis B virus, HePAD38, 168 h, 7 days incubation, extracellular HBV DNA by QPCR, read-out: Anti-HBV EC50
Summary of the method: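 HepG2-derived HepAD38 cells (HBV genotype D, ayw, tet-repressible CMV) induced by tetracycline withdrawal, treated 7 days at 37 °C with compound (1 μM to 10 pM, 10-fold steps). Supernatant HBV DNA quantified by QPCR against standard curve, percent of DMSO control; EC50 by 4-parameter fit; entecavir positive control.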

| SMILES | CC50 at 7 days [1] | EC50 (HBV) |
| --- | --- | --- |
| CC(=O)N1CC[C@@H](NC(=O)C(=O)c2c(C)c(C(=O)Nc3ccc(F)c(C)c3)c(C)n2C)[C@H](F)C1 [Example 147, 5-(2-(((3R,4R)-1-acetyl-3-fluoropiperidin-4-yl)amino)-2-oxoacetyl)-N-(4-fluoro-3-methylphenyl)-1,2,4-trimethyl-1H-pyrrole-3-carboxamide] | > 30 µM | < 50 nM |
| CC(=O)N1CC[C@@H](NC(=O)C(=O)c2c(C)c(C(=O)Nc3ccc(F)c(C)c3)c(C)n2C)C(F)(F)C1 [Example 148, (R)-5-(2-((1-acetyl-3,3-difluoropiperidin-4-yl)amino)-2-oxoacetyl)-N-(4-fluoro-3-methylphenyl)-1,2,4-trimethyl-1H-pyrrole-3-carboxamide] | > 30 µM | < 50 nM |
| CC(=O)N1CC[C@@H](NC(=O)C(=O)c2c(C)c(C(=O)Nc3ccc(F)c(C)c3)c(C)n2C)C(C)(C)C1 [Example 149, (R)-5-(2-((1-acetyl-3,3-dimethylpiperidin-4-yl)amino)-2-oxoacetyl)-N-(4-fluoro-3-methylphenyl)-1,2,4-trimethyl-1H-pyrrole-3-carboxamide] | > 30 µM | < 50 nM |
| Cc1cc(NC(=O)c2c(C)c(C(=O)C(=O)N[C@]3(C)C[C@H](O)C3)n(C)c2-c2cccnc2)ccc1F [Example 150, N-(4-fluoro-3-methylphenyl)-5-(2-(((1s,3s)-3-hydroxy-1-methylcyclobutyl)amino)-2-oxoacetyl)-1,4-dimethyl-2-(pyridin-3-yl)-1H-pyrrole-3-carboxamide] | > 30 µM | > 1000 nM |
| Cc1cc(NC(=O)c2c(C)c(C(=O)C(=O)N[C@H]3CC[C@@H](S(C)(=O)=O)CC3)n(C)c2-c2cccnc2)ccc1F [Example 151, N-(4-fluoro-3-methylphenyl)-1,4-dimethyl-5-(2-(((1s,4s)-4-(methylsulfonyl)cyclohexyl)amino)-2-oxoacetyl)-2-(pyridin-3-yl)-1H-pyrrole-3-carboxamide] | > 30 µM | > 1000 nM |
| Cc1cc(NC(=O)c2c(C)c(C(=O)C(=O)N[C@]3(C)CC[C@H](O)CC3)n(C)c2-c2cccnc2)ccc1F [Example 152, N-(4-fluoro-3-methylphenyl)-5-(2-(((1s,4s)-4-hydroxy-1-methylcyclohexyl)amino)-2-oxoacetyl)-1,4-dimethyl-2-(pyridin-3-yl)-1H-pyrrole-3-carboxamide] | > 30 µM | > 1000 nM |
| Cc1cc(NC(=O)c2c(C)c(C(=O)C(=O)N[C@H]3CC[C@@H](O)CC3)n(C)c2-c2cccnc2)ccc1F [Example 153, N-(4-fluoro-3-methylphenyl)-5-(2-(((1s,4s)-4-hydroxycyclohexyl)amino)-2-oxoacetyl)-1,4-dimethyl-2-(pyridin-3-yl)-1H-pyrrole-3-carboxamide] | > 30 µM | > 1000 nM |
| Cc1cc(NC(=O)c2c(C)c(C(=O)C(=O)NCC(C)(C)O)n(C)c2-c2cccnc2)ccc1F [Example 154, N-(4-fluoro-3-methylphenyl)-5-(2-((2-hydroxy-2-methylpropyl)amino)-2-oxoacetyl)-1,4-dimethyl-2-(pyridin-3-yl)-1H-pyrrole-3-carboxamide] | > 30 µM | 50 to 499 nM |
| Cc1cc(NC(=O)c2c(C)c(C(=O)C(=O)N[C@]3(C)C[C@H](O)C3)n(C)c2-c2ccccn2)ccc1F [Example 155, N-(4-fluoro-3-methylphenyl)-5-(2-(((1s,3s)-3-hydroxy-1-methylcyclobutyl)amino)-2-oxoacetyl)-1,4-dimethyl-2-(pyridin-2-yl)-1H-pyrrole-3-carboxamide] | > 30 µM | > 1000 nM |
| Cc1cc(NC(=O)c2c(C)c(C(=O)C(=O)N[C@H]3CC[C@@H](S(C)(=O)=O)CC3)n(C)c2-c2ccccn2)ccc1F [Example 156, N-(4-fluoro-3-methylphenyl)-1,4-dimethyl-5-(2-(((1s,4s)-4-(methylsulfonyl)cyclohexyl)amino)-2-oxoacetyl)-2-(pyridin-2-yl)-1H-pyrrole-3-carboxamide] | > 30 µM | > 1000 nM |
| Cc1cc(NC(=O)c2c(C)c(C(=O)C(=O)N[C@]3(C)CC[C@H](O)CC3)n(C)c2-c2ccccn2)ccc1F [Example 157, N-(4-fluoro-3-methylphenyl)-5-(2-(((1s,4s)-4-hydroxy-1-methylcyclohexyl)amino)-2-oxoacetyl)-1,4-dimethyl-2-(pyridin-2-yl)-1H-pyrrole-3-carboxamide] | > 30 µM | 50 to 499 nM |
| Cc1cc(NC(=O)c2c(C)c(C(=O)C(=O)N[C@H]3CC[C@@H](O)CC3)n(C)c2-c2ccccn2)ccc1F [Example 158, N-(4-fluoro-3-methylphenyl)-5-(2-(((1s,4s)-4-hydroxycyclohexyl)amino)-2-oxoacetyl)-1,4-dimethyl-2-(pyridin-2-yl)-1H-pyrrole-3-carboxamide] | > 30 µM | > 1000 nM |
| Cc1cc(NC(=O)c2c(C)c(C(=O)C(=O)NCC(C)(C)O)n(C)c2-c2ccccn2)ccc1F [Example 159, N-(4-fluoro-3-methylphenyl)-5-(2-((2-hydroxy-2-methylpropyl)amino)-2-oxoacetyl)-1,4-dimethyl-2-(pyridin-2-yl)-1H-pyrrole-3-carboxamide] | > 30 µM | > 1000 nM |
| Cc1cc(NC(=O)c2c(C)c(C(=O)C(=O)N[C@H]3CC[C@@H](S(C)(=O)=O)CC3)n(C)c2-c2ccncc2)ccc1F [Example 160, N-(4-fluoro-3-methylphenyl)-1,4-dimethyl-5-(2-(((1s,4s)-4-(methylsulfonyl)cyclohexyl)amino)-2-oxoacetyl)-2-(pyridin-4-yl)-1H-pyrrole-3-carboxamide] | > 30 µM | > 1000 nM |
| Cc1cc(NC(=O)c2c(C)c(C(=O)C(=O)N[C@]3(C)C[C@H](O)C3)n(C)c2-c2ccncc2)ccc1F [Example 161, N-(4-fluoro-3-methylphenyl)-5-(2-(((1s,3s)-3-hydroxy-1-methylcyclobutyl)amino)-2-oxoacetyl)-1,4-dimethyl-2-(pyridin-4-yl)-1H-pyrrole-3-carboxamide] | > 30 µM | > 1000 nM |
| Cc1cc(NC(=O)c2c(C)c(C(=O)C(=O)N[C@]3(C)CC[C@H](O)CC3)n(C)c2-c2ccncc2)ccc1F [Example 162, N-(4-fluoro-3-methylphenyl)-5-(2-(((1s,4s)-4-hydroxy-1-methylcyclohexyl)amino)-2-oxoacetyl)-1,4-dimethyl-2-(pyridin-4-yl)-1H-pyrrole-3-carboxamide] | > 30 µM | > 1000 nM |
| Cc1cc(NC(=O)c2c(C)c(C(=O)C(=O)N[C@H]3CC[C@@H](O)CC3)n(C)c2-c2ccncc2)ccc1F [Example 163, N-(4-fluoro-3-methylphenyl)-5-(2-(((1s,4s)-4-hydroxycyclohexyl)amino)-2-oxoacetyl)-1,4-dimethyl-2-(pyridin-4-yl)-1H-pyrrole-3-carboxamide] | > 30 µM | > 1000 nM |
| Cc1cc(NC(=O)c2c(C)c(C(=O)C(=O)NCC(C)(C)O)n(C)c2-c2ccncc2)ccc1F [Example 164, N-(4-fluoro-3-methylphenyl)-5-(2-((2-hydroxy-2-methylpropyl)amino)-2-oxoacetyl)-1,4-dimethyl-2-(pyridin-4-yl)-1H-pyrrole-3-carboxamide] | > 30 µM | > 1000 nM |
| CC(=O)N1CC[C@@H](NC(=O)C(=O)c2c(C)c(C(=O)Nc3ccc(F)c(C)c3)c(C)n2C)C[C@H]1C [Example 165, 5-(2-(((2R,4R)-1-acetyl-2-methylpiperidin-4-yl)amino)-2-oxoacetyl)-N-(4-fluoro-3-methylphenyl)-1,2,4-trimethyl-1H-pyrrole-3-carboxamide] | > 30 µM | < 50 nM |
| CC(=O)N1CC[C@H](NC(=O)C(=O)c2c(C)c(C(=O)Nc3ccc(F)c(C)c3)c(C)n2C)C[C@@H]1C [Example 166, 5-(2-(((2S,4S)-1-acetyl-2-methylpiperidin-4-yl)amino)-2-oxoacetyl)-N-(4-fluoro-3-methylphenyl)-1,2,4-trimethyl-1H-pyrrole-3-carboxamide] | > 30 µM | 50 to 499 nM |
| CC(=O)N1CC[C@@H](NC(=O)C(=O)c2c(C)c(C(=O)Nc3ccc(F)c(C)c3)c(C)n2C)[C@H](O)C1 [Example 167, 5-(2-(((3R,4R)-1-acetyl-3-hydroxypiperidin-4-yl)amino)-2-oxoacetyl)-N-(4-fluoro-3-methylphenyl)-1,2,4-trimethyl-1H-pyrrole-3-carboxamide] | > 30 µM | 500 to 1000 nM |
| Cc1cc(NC(=O)c2c(C)c(C(=O)C(=O)N[C@]3(C)CC[C@@H](O)CC3)n(C)c2C)cc(C)c1F [Example 168, N-(4-fluoro-3,5-dimethylphenyl)-5-(2-(((1r,4r)-4-hydroxy-1-methylcyclohexyl)amino)-2-oxoacetyl)-1,2,4-trimethyl-1H-pyrrole-3-carboxamide] | > 30 µM | < 50 nM |
| Cc1cc(Cl)cc(NC(=O)c2c(C)c(C(=O)C(=O)N[C@]3(C)CC[C@@H](O)CC3)n(C)c2C)c1 [Example 169, N-(3-chloro-5-methylphenyl)-5-(2-(((1r,4r)-4-hydroxy-1-methylcyclohexyl)amino)-2-oxoacetyl)-1,2,4-trimethyl-1H-pyrrole-3-carboxamide] | 5 to 30 µM | < 50 nM |
| Cc1c(C(=O)Nc2cccc(C#N)c2)c(C)n(C)c1C(=O)C(=O)N[C@]1(C)CC[C@@H](O)CC1 [Example 170, N-(3-cyanophenyl)-5-(2-(((1r,4r)-4-hydroxy-1-methylcyclohexyl)amino)-2-oxoacetyl)-1,2,4-trimethyl-1H-pyrrole-3-carboxamide] | > 30 µM | < 50 nM |
